Experimental data from US9296691B2, “Inhibitors of p75 receptor and their uses” (Horacio Uri Saragovi, priority 2010, dated 2016).

Test system: B104 cells
Assay: Pro-NTF killing assay (MTT), B104 cells
Format: cell-based
Conditions: pro-NTF 50 nM + I-B 20 μM, 72 hours
Method: The effect of I-B on the pro-apoptotic function of pro-NGF or pro-BDNF was tested in functional MTT assays measuring cell metabolism (FIG. 1B).
Cells (5,000 cells/well) were cultured in 96-well plates (Falcon, Lincoln Park, N.J.) in normal culture media (RPMI1640, Hepes, Glutamine, 5% serum). Wells were supplemented with NGF, BDNF, pro-NGF, or pro-BDNF (Alomone Labs) (50 nM final), in the presence or absence of I-B (20 μM final). Wells containing all culture conditions but no cells were used as blanks. The growth/survival profile of the cells was quantified using MTT (Sigma) 72 hours after plating. Optical density readings of MTT were done in a Benchmark Plus microplate Spectrophotometer (BioRad) at 595 nm with blanks subtracted.

CC(C)NC(=O)N(C(=O)Cn1cnc2c1c(=O)n(C)c(=O)n2C)C(C)C [I-B, 1,3-Diisopropyl-1-[2-(1,3-dimethyl-2,6-dioxo-1,2,3,6-tetrahydro-purin-7-yl)-acetyl]-urea]
cell viability (MTT) in presence of pro-NGF or pro-BDNF: prevented the loss of cell viability
